Like-named read-outs stand apart in the source and are kept apart here. Positions of bridges follow the written chain, without caps; N, C: chain ends. Non-standard residues stand in square brackets, D forms with d. Residues, ends and D or L forms follow the SMILES beside them.
How the values were obtained:
[1] = tested on: rat pituitary cells, which express SSTR2; experiment: Inhibition of growth hormone (GH) release from acutely dispersed rat pituitary cells; format: cell-based; conditions: in the presence of 1 nM GRF(1-29)NH2, 3 h at 37° C., number in brackets = samples tested
Text: Pituitaries from adult Charles River CD male rats (Wilmington, Mass.) housed under controlled conditions (lights on from 0500-1900 hrs), were dispersed and cultured using aseptic technique as previously described with modifications (Hoefer et al., Mol. Cell Endocrinol., 35:229, (1984); Ben-Jonathan et al., i Methods Enzymol., 103:249, (1983); and Heiman et al., Endocrinology, 116:410, (1985).
Briefly, pituitaries were removed from decapitated rats, sectioned, and then placed in a siliconized, liquid scintillation vial containing 2 ml 0.2% trypsin (Worthington Biochemicals, Freehold, N.J.) in sterile-filtered Krebs-Ringer bicarbonate buffer supplemented with 1% bovine serum albumin, 14 mM glucose, modified Eagle medium (MEM) vitamin solution and MEM amino acids (Gibco Laboratories, Grand Island, N.Y.) (KRBGA). All glassware was siliconized as described by Sayers et al., Endocrinology, 88:1063, (1971). The pituitary fragments were incubated in a water bath for 35 min at 37° C. with agitation. The vial contents were then poured into a scintillation vial containing 2 ml 0.1% DNase (Sigma Chemical Co., St. Louis, Mo.) in KRBGA and incubated for 2 min at 37° C. with agitation. After incubation the tissue was decanted into a 15 ml centrifuge tube and allowed to settle. The medium was discarded, and the pituitary sections were washed 3 times with 1 ml fresh KRBGA. The cells were dispersed in 2 ml 0.05% LBI (lima bean trypsin inhibitor, Worthington Biochemicals) by gently drawing the fragments into and expelling them out of a siliconized, fire-polished Pasteur pipette. Dispersed cells were filtered through a 630 μm diameter Nylon mesh (Tetko, Elmsford, N.Y.) into a fresh 15 ml centrifuge tube. An additional 2 ml of 0.05% LBI solution was used to rinse the first tube and was transferred to the second tube with filtering.
The dispersed cells were further diluted with approximately 15 ml sterile-filtered Dulbecco's modified Eagle medium (GIBCO), supplemented with 2.5% fetal calf serum (GIBCO), 3% horse serum (GIBCO), 10% fresh rat serum (stored on ice for no longer than 1 h) from the pituitary donors, 1% MEM non-essential amino acids (GIBCO), gentamycin ([…]; Sigma) and nystatin (10,000 U/ml; GIBCO). The cells were poured into a 50 ml round-bottomed glass extraction flask with a large diameter opening, counted with a hemacytometer (approximately 2,000,000 cells per pituitary), and randomly plated at a density of 200,000 cells per well (Co-star cluster 24; Rochester Scientific Co., Rochester, N.Y.). The plated cells were maintained in Dulbecco's medium in a humidified atmosphere of 95% air and 5% CO2 at 37° C. for 4 days to 5 days.
In preparation for a hormone challenge, the cells were washed 3 times with medium 199 (GIBCO) to remove old medium and floating cells. […] After 3 h at 37° C. in an air/carbon dioxide atmosphere (95/5%), the medium was removed and stored at -20 ° C. until assayed for hormone content. IC50 's (a concentration that provides half-maximal inhibition of GH release) were calculated using the computer program SigmaPlot (Jandel Scientific, San Rafael, Calif.).

[2] = Stability of 131I-labeled peptides stored in saline; format: physicochemical; conditions: one week after labeling
Experimental: All specimen activity (μCi) was measured in a dose calibrator at least 30 minutes prior to intravenous injection. Radiolabeled peptide was injected through a peripheral arm vein in a free-flowing intravenous line. One week after labeling, only 30% of the ^131 I-labeled multi-tyrosinated peptides WOC-3A and WOC-3B compounds stored in saline had degraded.

[3] = tested on: bronchioloalveolar carcinoma of the lung; experiment: Subcutaneous octreotide acetate therapy in a human patient; conditions: 2 mg/day subcutaneous
Text: The patient is a person diagnosed with bronchioloalveolar carcinoma of the lung approximately four years ago. […] underwent a right upperlobectomy and intensive chemotherapy with multiple agents.

[4] = target: T1, type 2 somatostatin receptors (SSTR2) (Homo sapiens, UniProt P30874); experiment: Somatostatin receptor binding assay on IMR32 membranes
T1 construct: IMR32 membrane fractions (100-150 μg) were incubated with 0.015 pM; host or cells: IMR32 human neuroblastoma cells (membrane fractions)
Experimental: The IMR32 cells were maintained in minimal essential media (MEM) supplemented with 15% heat-inactivated fetal bovine serum, 100 U/ml penicillin, 100 μg/ml streptomycin and nonessential amino acids. Cultured cells were harvested in a buffer containing 20 mM HEPES, 2 mM MgCl2, 5 mM EDTA, 1 mM 2-mercaptoethanol, 150 mM NaCl, and 50 μg/ml phenylmethylsulfonylfluoride (PMSF), (pH 7.4) at a concentration of 1×10^6 cells/ml. Cell membranes were prepared according to the method of O'Dorisio, M. S. et al., Cell Growth and Differentiation, 5:1-8, 1994. Membrane fractions were prepared by differential centrifugation and the membranes resuspended in buffer and stored at -80° for receptor binding studies.
Binding assays were carried out according to the method of O'Dorisio et al., supra. […] The reaction was terminated by centrifugation at 11,000×G for 3 minutes. Supernatant fluid was aspirated and the radioactivity of bound ligand in the pellet quantified in a gamma counter.
Specific binding was calculated using the difference between total and non-specific (in the presence of 1 μM unlabeled ligand) binding. Equilibrium dissociation constants (KD) and the maximal number of binding sites (Bmax) were determined using seven concentrations of unlabeled peptide in a competitive binding curve and calculated using a computerized nonlinear least squares fit to the mass-law equation of Munson and Rodbard, Munson, P. J. et al., Anal. Biochem., 107:220-239, 1980, as modified by McPhearson, G. A., J. of Pharm. Meth., 14:213-228, 1985.

[5] = tested on: bronchioloalveolar carcinoma of the lung (somatostatin receptor-expressing tumors); experiment: Biodistribution and dosimetry of 131I WOC-3A (1.6 mCi i.v.) in a human patient; format: in vivo; conditions: extrapolated for a dose of 1,500 mCi
Experimental: A batch of ^131 I WOC-3A (1.6 mCi) was made (Iso-Tex Corporation, Friendswood, TX) and its sterility and pyrogenicity tested at Iso-Tex. Radiolabeled WOC-3A was injected intravenously and the pharmacokinetics and biodistribution of the radiolabeled compound were calculated. The tumor/normal tissue ratio of distribution of radiolabeled WOC-3A was approximately 3:1 to 6:1.
Following injection of 1.6 mCi of ^131 I WOC-3A, the patient underwent three days of nuclear medicine scanning using a 3-headed SPECT camera as well as an ADAC camera. In addition, whole body radiation counts were obtained to calculate whole-body loss of radioisotope over the three day period. […] Bone marrow would receive in excess of 450 rads (a dose requiring bone marrow transplantation in 50% of patients). Thus, in preparation for bone marrow transplantation, the patient underwent bone marrow harvest to provide cells for reinfusion after WOC-3 therapy and sufficient clearance of the radiolabeled analog from the patient's circulation.

[6] = IMR32 membranes, competitive binding, 17° C., 30 minutes

T1 sequence (P30874 whole entry): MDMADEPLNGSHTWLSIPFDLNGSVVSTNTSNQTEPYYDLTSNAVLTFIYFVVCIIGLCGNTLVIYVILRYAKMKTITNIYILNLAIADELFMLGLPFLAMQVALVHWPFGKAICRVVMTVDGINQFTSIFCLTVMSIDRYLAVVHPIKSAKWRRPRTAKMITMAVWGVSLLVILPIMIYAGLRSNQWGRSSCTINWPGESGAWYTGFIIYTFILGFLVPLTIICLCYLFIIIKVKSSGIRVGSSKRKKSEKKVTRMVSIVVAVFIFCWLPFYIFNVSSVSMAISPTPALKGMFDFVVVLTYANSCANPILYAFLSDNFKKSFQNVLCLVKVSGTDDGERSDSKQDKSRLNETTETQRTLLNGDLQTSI

Kd [4, 6] [nM]	SMILES	IC50 [1] [nM]	also measured
–	CC(C)[C@@H]1NC(=O)[C@H](CCCCN)NC(=O)[C@@H](Cc2c[nH]c3ccccc23)NC(=O)[C@H](Cc2ccc(O)cc2)NC(=O)[C@@H](NC(=O)[C@@H](Cc2ccc(O)cc2)NC(=O)[C@@H](N)Cc2ccc(O)cc2)CSSC[C@@H](C(=O)N[C@H](C(N)=O)[C@@H](C)O)NC1=O [WOC-3B, cyclic(tyrosine-D-tyrosine-cysteine-tyrosine-D-tryptophan-lysine-valine-cy steine-threonine)] (H-Y[dY]CY[dW]KVCT-NH2; disulfide 3-8)	0.66 ± 0.06	Fraction of labeled peptide degraded [2]: 30%
–	C[C@@H](O)[C@@H]1NC(=O)[C@H](CCCCN)NC(=O)[C@@H](Cc2c[nH]c3ccccc23)NC(=O)[C@H](Cc2ccccc2)NC(=O)[C@@H](NC(=O)[C@H](N)Cc2ccccc2)CSSC[C@@H](C(=O)N[C@H](CO)[C@@H](C)O)NC1=O [octreotide acetate, D-Phe-Cys-Phe-D-Trp-Lys-Thr-Cys-Thr(ol)]	–	Tolerability of therapy [3]: tolerated this therapy well; Decrease in tumor volume ([3]; initial response, tumors later progressed): 25%
–	CC(C)[C@@H]1NC(=O)[C@H](CCCCN)NC(=O)[C@@H](Cc2c[nH]c3ccccc23)NC(=O)[C@H](Cc2ccc(O)cc2)NC(=O)[C@@H](NC(=O)[C@H](N)Cc2ccc3ccccc3c2)CSSC[C@@H](C(=O)N[C@H](C(N)=O)[C@@H](C)O)NC1=O [LANREOTIDE ®, Dβ-Nal-Cys-Tyr-D-Trp-Lys-Val-Cys-Thr(NH2), reference compound]	0.4 ± 0.1	Kd [4]: 1.05 ± 0.51 nM
1	C[C@@H](O)[C@H](NC(=O)[C@@H]1CSSC[C@H](NC(=O)[C@@H](Cc2ccc(O)cc2)NC(=O)[C@H](Cc2ccc(O)cc2)NC(=O)[C@H](Cc2ccc(O)cc2)NC(=O)[C@H](N)Cc2ccc(O)cc2)C(=O)N[C@@H](Cc2ccccc2)C(=O)N[C@H](Cc2c[nH]c3ccccc23)C(=O)N[C@@H](CCCCN)C(=O)N[C@@H]([C@@H](C)O)C(=O)N1)C(N)=O [WOC-4, cyclic(D-tyrosine-tyrosine-tyrosine-D-tyrosine-cysteine-phenylalanine-D-tr yptophan-lysine-threonine-cysteine-threonine)] (H-[dY]YY[dY]CF[dW]KTCT-NH2; disulfide 5-10)	–	–
5.73 ± 0.22	CC(C)[C@@H]1NC(=O)[C@H](CCCCN)NC(=O)[C@@H](Cc2c[nH]c3ccccc23)NC(=O)[C@H](Cc2ccc(O)cc2)NC(=O)[C@@H](NC(=O)[C@H](N)Cc2ccc(O)cc2)CSSC[C@@H](C(=O)N[C@H](C(N)=O)[C@@H](C)O)NC1=O [WOC-2A, cyclic-(D-tyrosine-cysteine-tyrosine-D-tryptophan-lysine-valine-cysteine-t hreonine-NH2)]	4.84 ± 0.58	–
–	C[C@H](N)C(=O)NCC(=O)N[C@H]1CSSC[C@@H](C(=O)O)NC(=O)[C@H](CO)NC(=O)[C@H]([C@@H](C)O)NC(=O)[C@H](Cc2ccccc2)NC(=O)[C@H]([C@@H](C)O)NC(=O)[C@H](CCCCN)NC(=O)[C@H](Cc2c[nH]c3ccccc23)NC(=O)[C@H](Cc2ccccc2)NC(=O)[C@H](Cc2ccccc2)NC(=O)[C@H](CC(N)=O)NC(=O)[C@H](CCCCN)NC1=O [Somatostatin, reference compound]	0.46 ± 0.04	–
–	CC(C)[C@@H]1NC(=O)[C@H](CCCCN)NC(=O)[C@@H](Cc2c[nH]c3ccccc23)NC(=O)[C@H](Cc2ccc(O)cc2)NC(=O)[C@@H](NC(=O)[C@@H](Cc2ccc(O)cc2)NC(=O)[C@H](C)NC(=O)[C@@H](N)Cc2ccc(O)cc2)CSSC[C@@H](C(=O)N[C@H](C(N)=O)[C@@H](C)O)NC1=O [WOC-3A, cyclic(tyrosine-alanine-D-tyrosine-cysteine-tyrosine-D-tryptophan-lysine-v aline-cysteine-threonine)] (H-YA[dY]CY[dW]KVCT-NH2; disulfide 4-9)	0.96 ± 0.01	Radiation dose to bone marrow [5]: > 450 rads; Fraction of labeled peptide degraded [2]: 30%; Displacement of bound radioactivity by unlabeled ligand ([4]; 10,000-fold excess of unlabeled WOC-3A or native somatostatin): no radioactivity was displaced; Total binding of radiolabeled analog to IMR-32 membranes ([4]; radiolabeled analog): high levels of total binding
1.2	C[C@@H](O)[C@H](NC(=O)[C@@H]1CSSC[C@H](NC(=O)[C@@H](Cc2ccc(O)cc2)NC(=O)[C@@H](N)Cc2ccc(O)cc2)C(=O)N[C@@H](Cc2ccccc2)C(=O)N[C@H](Cc2c[nH]c3ccccc23)C(=O)N[C@@H](CCCCN)C(=O)N[C@@H]([C@@H](C)O)C(=O)N1)C(N)=O [WOC-2B, cyclic-(tyrosine-D-tyrosine-cysteine-phenylalanine-D-tryptophan-lysine-thr eonine-cysteine-threonine-NH2)] (H-Y[dY]CF[dW]KTCT-NH2; disulfide 3-8)	–	–
–	C[C@@H](O)[C@H](NC(=O)[C@@H]1CSSC[C@H](NC(=O)[C@@H](Cc2ccccc2)NC(=O)[C@H](CCCCNC(=O)[C@H](CCCCNC(=O)[C@H](CCCCNC(=O)[C@H](N)Cc2ccc(O)cc2)NC(=O)[C@H](N)Cc2ccc(O)cc2)NC(=O)[C@H](CCCCNC(=O)[C@H](N)Cc2ccc(O)cc2)NC(=O)[C@H](N)Cc2ccc(O)cc2)NC(=O)[C@H](CCCCNC(=O)[C@H](CCCCNC(=O)[C@H](N)Cc2ccc(O)cc2)NC(=O)[C@H](N)Cc2ccc(O)cc2)NC(=O)[C@H](CCCCNC(=O)[C@H](N)Cc2ccc(O)cc2)NC(=O)[C@H](N)Cc2ccc(O)cc2)C(=O)N[C@@H](Cc2ccccc2)C(=O)N[C@H](Cc2c[nH]c3ccccc23)C(=O)N[C@@H](CCCCN)C(=O)N[C@@H]([C@@H](C)O)C(=O)N1)C(N)=O [WOC-8, cyclic[(D-tyrosine)8-(lysine)4-(lysine)2-lysine-cysteine-phenylalanine-D-tryptophan-lysine-threonine-cysteine-threonine]]	2.46 ± 0.69	–
